The results in this text go back to ChEMBL document CHEMBL3867467, “Discovery of indazole ethers as novel, potent, non-steroidal glucocorticoid receptor modulators” (Bioorg Med Chem Lett, 2016).

Structures are written as SMILES.

The nature of data set [1]: in vivo. To be noted: Wistar, rat, iv, 1 umol/kg.
Description: Clearance in Wistar rat at 1 umol/kg, iv through bolus administration by LC/MS/MS analysis
A short description of data set [2]: in vivo. To be noted: Wistar, rat, iv, 1 umol/kg. The source holds these as a separate data set.
Description: Volume of distribution at steady state in Wistar rat at 1 umol/kg, iv through bolus administration by LC/MS/MS analysis
Data set [3] in a line: in vivo. As to conditions: Wistar, rat, iv, 1 umol/kg. The source holds these as a separate data set.
Data set [4] in a line: in vivo. As to conditions: Wistar, rat, po, 10 umol/kg.
Data set [5] can be described thus: in vivo. As to conditions: Wistar, rat, po, 10 umol/kg. This is another data set of the same source.
Data set [6] in a line: in vivo. As to conditions: Lewis, rat, po.
Description: AUC in Lewis rat model of SCW-induced joint inflammation at anti-inflammatory ED50 administered via oral gavage once daily for 8 days measured 24 hrs post last dose on day 8 by LC/MS/MS analysis
Data set [7] can be described thus: in vitro. To be noted: human, plasma.
Description: Fraction unbound in human plasma at 10 uM
A short description of data set [8]: in vitro. To be noted: rat, plasma.
Description: Fraction unbound in rat plasma at 10 uM
Data set [9] in a line: Intrinsic clearance in rat hepatocytes assessed per million cells. It is filed as ADME, cell-based, Hepatocyte. To be noted: read-out: CLH.

As usually defined, the clearance is the volume of plasma or blood freed of the substance per unit of time. A high value points to a high capacity for elimination. As a reminder, the Vd is the apparent volume that relates the amount in the body to the concentration in plasma or blood. Read a low Vd as little distribution into tissue. For orientation: half-life means the time needed for the level to fall by half in the phase considered. Low readings indicate fast loss, high ones slow loss. The AUC(0-inf) is total exposure, with the tail of the curve extrapolated. The bioavailability is dose-corrected exposure relative to a reference, in per cent. A low value points to little systemic uptake. Usually AUC stands for concentration integrated over time. A low value points to low exposure. As a reminder, the fraction unbound is the share of the substance not bound to proteins or other matrix. High values mean weak binding, low ones extensive binding.

`C[C@H](NC(=O)C(F)(F)F)[C@H](Oc1ccc2c(cnn2-c2ccc(F)cc2)c1)c1ccccc1`: the clearance in the data set “in vivo [1]” amounted to 19 mL/min/kg. The molecule further showed a Vd in the data set “in vivo [2]” of 14 L/kg. The same molecule had a half-life in “in vivo [3]” of 11 h. In addition, the total exposure AUC(0-inf) in the data set “in vivo [4]” turned out to be 7.1 µM·h. The molecule further came in with a bioavailability in the data set “in vivo [5]” of 53%. Further, the AUC in “in vivo [6]” turned out to be 0.08 µM·h. The figures for the unbound share (fraction unbound) at 10 µM in the data set “in vitro [7]” and in the data set “in vitro [8]” were 0.0001 and 0.00011, respectively.

In turn, `COc1ccc([C@@H](Oc2ccc3c(cnn3-c3ccc(F)cc3)c2)[C@H](C)NC(=O)C2CC2)cn1` yielded a clearance in the data set “in vivo [1]” of 28 mL/min/kg. The Vd in the data set “in vivo [2]” turned out to be 15 L/kg. In “in vivo [4]”, this molecule registered an AUC(0-inf) of 5.9 µM·h. For the same molecule, in “in vivo [5]”, the bioavailability came to 66%. This molecule yielded an AUC in “in vivo [6]” of 0.035 µM·h. The fraction unbound at 10 µM in the data set “in vitro [7]” came to 0.0015; in the data set “in vitro [8]”, 0.0063.

As to `C[C@]12C=CC(=O)C=C1CC[C@@H]1[C@@H]2[C@@H](O)C[C@@]2(C)[C@H]1CC[C@]2(O)C(=O)CO` [PREDNISOLONE], the hepatocyte CLint in data set [9] was determined as 27 µL/min/1e6 cells. The molecule further had a clearance in the data set “in vivo [1]” of 54 mL/min/kg. Further, the Vd in “in vivo [2]” was 0.63 L/kg. In the data set “in vivo [3]”, the half-life is 0.27 h. Further, the AUC(0-inf) in the data set “in vivo [4]” came to 0.35 µM·h. For the same molecule, the AUC in “in vivo [6]” came out at 0.59 µM·h. For the same molecule, the fraction unbound at 10 µM in the data set “in vitro [7]” is above 0.41; in the data set “in vitro [8]”, 0.31.
